# Source: PubChem BioAssay AID2060347 (Molecular Pharmacology Branch, DTP, NCI, 2025)
# System: 817829-284-R-J1-PDC spheroids with HUVEC/MSC, viability
# Assay: Anticancer human tumor 817829-284-R-J1-PDC patient-derived colon adenocarcinoma cell line growth inhibition [TAK]
# Conditions: for IC50: curve of first compound; for viability, T/C: stronger effect = lower value
# Excerpt: Combinatorial screen of targeted agents with TAK-243 and ipatasertib in multi-cell type tumor spheroids
# A high-throughput screen of multi-cell type tumor spheroids was designed to identify active combinations of targeted small molecules and TAK-243 or ipatasertib. Complex spheroids include a stromal component modeled by human endothelial cells (HUVEC) and fibroblasts modeled by human mesenchymal stem cells (MSCs). The concentration ranges selected for each drug and investigational agent were based upon clinically achievable concentrations if the clinical Cmax of the agent was known.
# Compounds. The drugs and investigational agents: TAK-243 (785004), ipatasertib (767898), everolimus (733504), selumetinib (741078), bortezomib (756655), trametinib (758246), ixazomib (758254), vemurafenib (761431), dabrafenib (764134), sapanisertib (764658), alpelisib (765974), and copanlisib (816437), were obtained from the National Cancer Institute (NCI) Developmental Therapeutics Program Chemical Repository. The FDA-approved anticancer drug set is available from the NCI Developmental Therapeutics Program. […] The stock solutions were prepared in dimethyl sulfoxide (DMSO, Sigma-Aldrich, St. Louis, MO, cat. D2650) at 800-fold the tested concentration and stored at -70 degrees C prior to their use. All drugs and investigational agents were tested over a range starting from a high concentration at or near the clinical Cmax and decreasing in half-log increments. If the clinical Cmax for an agent had not been determined, the highest concentration tested was 10 microM.
# NCI60 Cell Culture. NCI60 cell lines were obtained from the NCI Developmental Therapeutics Program Tumor Repository. For each lot of cells, the Repository performed Applied Biosystems AmpFLSTR Identifiler testing with PCR amplification to confirm consistency with the published Identifier STR profile for each cell line. Cells were kept in continuous culture for no more than 20 passages. The optimal seeding densities for each of the cell lines at each time point assessed were determined prior to performing the concentration response studies. Briefly, the NCI60 human tumor lines were grown as monolayers in RPMI 1640 medium supplemented with 10% FBS and 2 mmol/L L-glutamine.
# An additional 2 lines were from the NCI60 cell line panel including melanomas, MALME-3M and SK-MEL-2. Pooled donor human umbilical vein endothelial cells (HUVEC, Lonza, cat. CC-2519) and human mesenchymal stem cells (hMSC, Lonza, cat. PT-2501) were purchased from Lonza (Walkersville, MD).
# PDMR cell lines were grown in complete medium (DC medium): Dulbecco's modified Eagle's medium (DMEM)/F12 supplemented with 5% fetal bovine serum (FBS), 2 mM L-glutamine, 100 U/mL penicillin and 100 µg/ml streptomycin, 0.4 µg/ml hydrocortisone, 10 ng/ml epidermal growth factor (EGF) recombinant human protein, 24 µg/mL adenine, and 0.1 mg/mL primocin. During culture from frozen stock vials, PDMR cells were cultured in the same medium containing 10 µM Y-27632 (see Table 3). The PDCs were cultured in complete DMEM/F12 media without 10 microM Y-27632 dihydrochloride for at least two passages prior to the screen. The pooled donor HUVEC and hMSC were cultured in endothelial cell growth medium 2 (PromoCell, Heidelberg, Germany, cat. C-22011) and mesenchymal stem cell growth medium 2 (PromoCell, cat. C-28009), respectively. For all experiments, HUVEC and hMSC were used at passages </=5.
# For the pre-screen, cell seeding densities were determined from a titration spanning the range from 5,000 to 313 cells per well. The mct-spheroids including 60% malignant cells, 25% HUVEC and 15% MSC dispensed as a mixture into U-bottom Ultra-Low Attachment 384-well plates (Corning, NY)
# High-throughput Drug Combination Screening.
# Prior to their inoculation into 384-well plates, malignant cells, HUVEC, and hMSC were removed from T flasks using TrypLE express (Thermo Fisher Scientific, cat. 12605036) and harvested by centrifugation for 5 min at 233 x g. […]
# [1] = second compound 0.3 µM, first compound 0.00949 µM
# [2] = second compound 0.3 µM, first compound 0.03 µM
# [3] = second compound 0.949 µM, first compound 0.00949 µM
# [4] = second compound 0.949 µM, first compound 0.03 µM
# [5] = second compound 3 µM, first compound 0.00949 µM
# [6] = second compound 3 µM, first compound 0.03 µM
# [7] = second compound 9.49 µM, first compound 0.00949 µM
# [8] = second compound 9.49 µM, first compound 0.03 µM
# [9] = second compound 30 µM, first compound 0.00949 µM
# [10] = second compound 30 µM, first compound 0.03 µM
compound,measurement,setting,value
CC(=O)Nc1cccc(-n2c(=O)n(C3CC3)c(=O)c3c(Nc4ccc(I)cc4F)n(C)c(=O)c(C)c32)c1 + CC(C)NCC(C(=O)N1CCN(c2ncnc3c2C(C)CC3O)CC1)c1ccc(Cl)cc1,IC50,second compound 0.3 µM,0.154 nM
same,IC50,second compound 0.949 µM,< 0.0949 nM
same,IC50,second compound 3 µM,< 0.0949 nM
same,IC50,second compound 9.49 µM,< 0.0949 nM
same,IC50,second compound 30 µM,< 0.0949 nM
same,"viability, T/C","second compound 0.3 µM, first compound 94.9 pM",60%
same,"viability, T/C","second compound 0.3 µM, first compound 0.0003 µM",36.2%
same,"viability, T/C","second compound 0.3 µM, first compound 0.000949 µM",22.1%
same,"viability, T/C","second compound 0.3 µM, first compound 0.003 µM",24.3%
same,"viability, T/C",[1],11.9%
same,"viability, T/C",[2],7.59%
same,"viability, T/C","second compound 0.949 µM, first compound 94.9 pM",19.3%
same,"viability, T/C","second compound 0.949 µM, first compound 0.0003 µM",19.1%
same,"viability, T/C","second compound 0.949 µM, first compound 0.000949 µM",13.8%
same,"viability, T/C","second compound 0.949 µM, first compound 0.003 µM",12.8%
same,"viability, T/C",[3],11.4%
same,"viability, T/C",[4],10.6%
same,"viability, T/C","second compound 3 µM, first compound 94.9 pM",9.84%
same,"viability, T/C","second compound 3 µM, first compound 0.0003 µM",8.37%
same,"viability, T/C","second compound 3 µM, first compound 0.000949 µM",8.93%
same,"viability, T/C","second compound 3 µM, first compound 0.003 µM",8.79%
same,"viability, T/C",[5],7.98%
same,"viability, T/C",[6],7.61%
same,"viability, T/C","second compound 9.49 µM, first compound 94.9 pM",6.42%
same,"viability, T/C","second compound 9.49 µM, first compound 0.0003 µM",5.85%
same,"viability, T/C","second compound 9.49 µM, first compound 0.000949 µM",5.02%
same,"viability, T/C","second compound 9.49 µM, first compound 0.003 µM",5.15%
same,"viability, T/C",[7],5.13%
same,"viability, T/C",[8],4.15%
same,"viability, T/C","second compound 30 µM, first compound 94.9 pM",4.66%
same,"viability, T/C","second compound 30 µM, first compound 0.0003 µM",4.56%
same,"viability, T/C","second compound 30 µM, first compound 0.000949 µM",3.15%
same,"viability, T/C","second compound 30 µM, first compound 0.003 µM",3.45%
same,"viability, T/C",[9],2.76%
same,"viability, T/C",[10],2.65%
CC(C)CC(NC(=O)C(Cc1ccccc1)NC(=O)c1cnccn1)B(O)O (stereo not given) + CC(C)NCC(C(=O)N1CCN(c2ncnc3c2C(C)CC3O)CC1)c1ccc(Cl)cc1,IC50,second compound 0.3 µM,4.91 nM
same,IC50,second compound 0.949 µM,4.23 nM
same,IC50,second compound 3 µM,< 0.0316 nM
same,IC50,second compound 9.49 µM,< 0.0316 nM
same,IC50,second compound 30 µM,< 0.0316 nM
same,"viability, T/C","second compound 0.3 µM, first compound 31.6 pM",108%
same,"viability, T/C","second compound 0.3 µM, first compound 0.0001 µM",104%
same,"viability, T/C","second compound 0.3 µM, first compound 0.000316 µM",105%
same,"viability, T/C","second compound 0.3 µM, first compound 0.001 µM",100%
same,"viability, T/C","second compound 0.3 µM, first compound 0.00316 µM",80.7%
same,"viability, T/C","second compound 0.3 µM, first compound 0.01 µM",0.6%
same,"viability, T/C","second compound 0.949 µM, first compound 31.6 pM",88%
same,"viability, T/C","second compound 0.949 µM, first compound 0.0001 µM",60.8%
same,"viability, T/C","second compound 0.949 µM, first compound 0.000316 µM",64.6%
same,"viability, T/C","second compound 0.949 µM, first compound 0.001 µM",77.2%
same,"viability, T/C","second compound 0.949 µM, first compound 0.00316 µM",66.7%
same,"viability, T/C","second compound 0.949 µM, first compound 0.01 µM",0.35%
same,"viability, T/C","second compound 3 µM, first compound 31.6 pM",29.4%
same,"viability, T/C","second compound 3 µM, first compound 0.0001 µM",22.9%
same,"viability, T/C","second compound 3 µM, first compound 0.000316 µM",29.9%
same,"viability, T/C","second compound 3 µM, first compound 0.001 µM",22.3%
same,"viability, T/C","second compound 3 µM, first compound 0.00316 µM",19.9%
same,"viability, T/C","second compound 3 µM, first compound 0.01 µM",0.2%
same,"viability, T/C","second compound 9.49 µM, first compound 31.6 pM",12.7%
same,"viability, T/C","second compound 9.49 µM, first compound 0.0001 µM",13.2%
same,"viability, T/C","second compound 9.49 µM, first compound 0.000316 µM",11.6%
same,"viability, T/C","second compound 9.49 µM, first compound 0.001 µM",13.6%
same,"viability, T/C","second compound 9.49 µM, first compound 0.00316 µM",8.78%
same,"viability, T/C","second compound 9.49 µM, first compound 0.01 µM",0.15%
same,"viability, T/C","second compound 30 µM, first compound 31.6 pM",8.2%
same,"viability, T/C","second compound 30 µM, first compound 0.0001 µM",8.27%
same,"viability, T/C","second compound 30 µM, first compound 0.000316 µM",10.2%
same,"viability, T/C","second compound 30 µM, first compound 0.001 µM",9.25%
same,"viability, T/C","second compound 30 µM, first compound 0.00316 µM",6.13%
same,"viability, T/C","second compound 30 µM, first compound 0.01 µM",0.2%
Cn1cnc2c(F)c(Nc3ccc(Br)cc3Cl)c(C(=O)NOCCO)cc21 + CC(C)NCC(C(=O)N1CCN(c2ncnc3c2C(C)CC3O)CC1)c1ccc(Cl)cc1,IC50,second compound 0.3 µM,11.5 nM
same,IC50,second compound 0.949 µM,< 9.49 nM
same,IC50,second compound 3 µM,< 9.49 nM
same,IC50,second compound 9.49 µM,< 9.49 nM
same,IC50,second compound 30 µM,< 9.49 nM
same,"viability, T/C",[1],53.8%
same,"viability, T/C",[2],36.5%
same,"viability, T/C","second compound 0.3 µM, first compound 0.0949 µM",40.4%
same,"viability, T/C","second compound 0.3 µM, first compound 0.3 µM",23.4%
same,"viability, T/C","second compound 0.3 µM, first compound 0.949 µM",17.4%
same,"viability, T/C","second compound 0.3 µM, first compound 3 µM",9.69%
same,"viability, T/C",[3],17.6%
same,"viability, T/C",[4],15.9%
same,"viability, T/C","second compound 0.949 µM, first compound 0.0949 µM",13.8%
same,"viability, T/C","second compound 0.949 µM, first compound 0.3 µM",12.9%
same,"viability, T/C","second compound 0.949 µM, first compound 0.949 µM",12.6%
same,"viability, T/C","second compound 0.949 µM, first compound 3 µM",10.6%
same,"viability, T/C",[5],9.45%
same,"viability, T/C",[6],10.2%
same,"viability, T/C","second compound 3 µM, first compound 0.0949 µM",8.2%
same,"viability, T/C","second compound 3 µM, first compound 0.3 µM",9.01%
same,"viability, T/C","second compound 3 µM, first compound 0.949 µM",8.23%
same,"viability, T/C","second compound 3 µM, first compound 3 µM",6.8%
same,"viability, T/C",[7],6.1%
same,"viability, T/C",[8],6.4%
same,"viability, T/C","second compound 9.49 µM, first compound 0.0949 µM",5.55%
same,"viability, T/C","second compound 9.49 µM, first compound 0.3 µM",5.64%
same,"viability, T/C","second compound 9.49 µM, first compound 0.949 µM",4.81%
same,"viability, T/C","second compound 9.49 µM, first compound 3 µM",4.12%
same,"viability, T/C",[9],4.35%
same,"viability, T/C",[10],3.94%
same,"viability, T/C","second compound 30 µM, first compound 0.0949 µM",3.58%
same,"viability, T/C","second compound 30 µM, first compound 0.3 µM",3.91%
same,"viability, T/C","second compound 30 µM, first compound 0.949 µM",2.71%
same,"viability, T/C","second compound 30 µM, first compound 3 µM",2.38%
